Laboratory results published in PMC6017171, “Comparative Evaluation of the Antioxidant and Anti-Alzheimer’s Disease Potential of Coumestrol and Puerarol Isolated from Pueraria lobata Using Molecular Modeling Studies” (Molecules : A Journal of Synthetic Chemistry and Natural …, 2018).
Entries after “also recorded” stand apart in the source; their conditions may differ. Like-named read-outs stand apart in the source and are kept apart here.

What was measured:
Electric eel AChE [1] = target: T1, Electric eel AChE (Electrophorus electricus, UniProt O42275); test: In vitro ChE enzyme assay (Ellman), AChE; format: biochemical
T1 construct: purchased Sigma-Aldrich Co. (St. Louis, MO, USA)
Experimental: (§1) Electric eel AChE (EC 3.1.1.7), horse serum BChE (EC 3.1.1.8), acetylthiocholine iodide (ATCh), butyrylthiocholine chloride (BTCh), 5,5-dithiobis[2-nitrobenzoic acid] […] All required reagent-grade chemicals used in this study were purchased from commercial sources. Coumestrol and puerarol were isolated from P. lobata as described by Seong et al..
(§2) The inhibitory activity of coumestrol and puerarol against ChEs was measured using the spectrophotometric methods reported by Ellman et al. and Jung et al.. ATCh and BTCh were used as substrates to assay the inhibition of AChE and BChE, respectively. All reactions were performed in triplicate and were recorded in a 96-well microplate format using a microplate spectrophotometer (Molecular Devices, Sunnyvale, CA, USA). Percent inhibition was calculated as (1 − S/E) × 100, where E and S were the enzyme activities without and with the test sample, respectively.

[2] = cited from earlier work
[3] = DPPH radical scavenging activity; details: mean ± S.E.M of triplicate experiments
Experimental: DPPH radical scavenging activity was evaluated using the method of Blois, with slight modification. Test samples and DPPH were dissolved in methanol. Each test sample (160 µL) at various concentrations was added to 40 µL of DPPH solution (1.5 × 10^−4 M). After gently mixing and standing at room temperature for 30 min, the optical density of the reactant was measured at 520 nm using a VERSAmax microplate spectrophotometer (Molecular Devices, Sunnyvale, CA, USA). […] L-Ascorbic acid was used as a positive control.

[4] = Western blot analysis for inhibition of ONOO−-mediated nitrotyrosine formation (BSA nitration)
Experimental: Figure 2 Dose-depended inhibition of ONOO^−-mediated albumin nitration by coumestrol and puerarol. Mixtures of test samples, bovine serum albumin (BSA), and ONOO^− were incubated with shaking at 37 °C for 30 min. The reactant was resolved in 10% polyacrylamide gel via electrophoresis. (a) Coumestrol; and (b) puerarol, were used at the indicated concentrations; (c) Quantification of band intensity was calculated using CS Analyzer 3.00 (ATTO Corp., Tokyo, Japan). ^# p < 0.05 indicates a significant difference from the untreated normal group, * p < 0.05 indicate significant differences from the ONOO^− treated control.
The inhibition of ONOO^−-nitrotyrosine formation was evaluated using the method of Aulak et al.. Samples were added to BSA and mixed with ONOO^− (200 µM). After a 10 min incubation period (room temperature), the sample solution was added to Bio-Rad 2X Laemmli Sample buffer with mercaptoethanol and then boiled for 7 min. The reactant was resolved in 10% polyacrylamide gel via electrophoresis and transferred to PVDF membranes. Pre-stained blue protein markers were used for molecular weight determination. […] Densitometric analysis of the western blot results was determined using a CS analyzer v3.00 (ATTO Corp.).

horse serum BChE [5] = target: T2, horse serum BChE (Equus caballus, UniProt P81908); test: Enzyme kinetic analysis for BChE inhibition (Lineweaver-Burk and secondary plots); format: biochemical; details: for Inhibition mode, BChE: Lineweaver-Burk plots; for Ki: secondary plot
T2 construct: horse serum BChE (EC 3.1.1.8); purchased Sigma-Aldrich Co. (St. Louis, MO, USA); host or cells: horse serum
Experimental: (§3) To elucidate the mechanisms of ChE inhibition, kinetic studies of enzyme activity were performed. The slope or intercept in Lineweaver-Burk plots were drawn in SigmaPlot 12.0 as a function of inhibitor concentration, and the kinetic parameters were determined.
(§4) To determine the mechanism of inhibition, AChE, BChE, and BACE1 inhibition was evaluated by monitoring the effects of different concentrations of substrate (0.4 to 0.8 mM for AChE and BChE; 250 to 750 nM for BACE1). Specifically, AChE, BChE, and BACE1 inhibition assays were performed as described above, but the substrate concentration was varied. Inhibition modes of coumestrol and puerarol against ChEs and BACE1 were determined by Lineweaver–Burk plots. Inhibition constants (Ki) were determined by secondary plots.

Electric eel AChE [6] = target: T1, Electric eel AChE; test: Enzyme kinetic analysis for AChE inhibition (Lineweaver-Burk and secondary plots); format: biochemical; details: for Inhibition mode, AChE: Lineweaver-Burk plots
Experimental: as §3, §4

BACE1 [7] = target: T3, BACE1 (Homo sapiens, UniProt P56817); test: In vitro BACE1 enzyme assay; format: biochemical; details: mean ± S.E.M of triplicate experiments
T3 construct: purchased
Experimental: The in vitro BACE1 enzyme assay was carried out according to the manufacturer’s recommended protocol with minor modifications. Briefly, a mixture of […] of assay buffer (50 mM sodium acetate, pH 4.5), […] of BACE1 (1.0 U/mL), […] of substrate (750 nM Rh-[…]-Quencher in 50 mM, ammonium bicarbonate) and […] of the test sample was dissolved in 10% DMSO and incubated for 60 min at 25 °C in the dark. Proteolysis of the two fluorophores (Rh-[…]-Quencher) by BACE1 was determined by monitoring formation of the fluorescent donor (Rh-EVNL) at wavelengths of 545 nm for excitation and 585 nm for emission. Fluorescence was measured with a microplate spectrofluorometer (Gemini EM, Sunnyvale, CA, USA).

horse serum BChE [8] = target: T2, horse serum BChE; test: In vitro ChE enzyme assay (Ellman), BChE; format: biochemical; details: substrate BTCh; mean ± S.E.M of triplicate experiments
Experimental: as §1, §2

[9] = ONOO− scavenging activity (DHR 123 oxidation); details: mean ± S.E.M of triplicate experiments; read-out: EC50 Peroxynitrite scavenging
Experimental: In brief, the rhodamine buffer (pH 7.4) consisted of 50 mM sodium phosphate dibasic, 50 mM sodium phosphate monobasic, 90 mM sodium chloride, 5.0 mM potassium chloride, and 100 μM diethylenetriamine pentaacetate. […] The assay buffer was prepared prior to use and placed on ice. Test samples were dissolved in 10% DMSO (100 μM final concentration). The background and final fluorescent intensities were measured 5 min after treatment with and without the addition of authentic ONOO^− (10 μM), dissolved in 0.3 N sodium hydroxide. […] L-penicillamine was used as a positive control.

BACE1 [10] = target: T3, BACE1; test: Enzyme kinetic analysis for BACE1 inhibition (Lineweaver-Burk and secondary plots); format: biochemical; details: for Inhibition mode, BACE1: Lineweaver-Burk plots; for Ki: secondary plot
Experimental: as §3, §4

[11] = substrate ATCh, mean ± S.E.M of triplicate experiments, read-out: IC50 AChE

T2 sequence (P81908 whole entry): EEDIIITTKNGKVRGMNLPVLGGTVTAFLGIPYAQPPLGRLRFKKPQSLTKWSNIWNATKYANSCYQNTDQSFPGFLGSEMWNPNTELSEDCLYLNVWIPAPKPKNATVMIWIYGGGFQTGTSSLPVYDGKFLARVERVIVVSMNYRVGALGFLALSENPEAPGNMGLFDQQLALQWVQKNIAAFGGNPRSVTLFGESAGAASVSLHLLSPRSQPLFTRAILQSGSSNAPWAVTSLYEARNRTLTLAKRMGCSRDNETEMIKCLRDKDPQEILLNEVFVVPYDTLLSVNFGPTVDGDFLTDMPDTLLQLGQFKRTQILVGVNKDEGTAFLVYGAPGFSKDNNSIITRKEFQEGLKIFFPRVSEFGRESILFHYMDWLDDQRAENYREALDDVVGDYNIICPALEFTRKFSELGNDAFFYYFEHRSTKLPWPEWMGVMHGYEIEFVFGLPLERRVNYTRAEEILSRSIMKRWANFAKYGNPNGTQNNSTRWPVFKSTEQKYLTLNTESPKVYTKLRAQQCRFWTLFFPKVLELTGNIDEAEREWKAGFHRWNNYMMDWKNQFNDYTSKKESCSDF
T3 sequence (P56817 46-501): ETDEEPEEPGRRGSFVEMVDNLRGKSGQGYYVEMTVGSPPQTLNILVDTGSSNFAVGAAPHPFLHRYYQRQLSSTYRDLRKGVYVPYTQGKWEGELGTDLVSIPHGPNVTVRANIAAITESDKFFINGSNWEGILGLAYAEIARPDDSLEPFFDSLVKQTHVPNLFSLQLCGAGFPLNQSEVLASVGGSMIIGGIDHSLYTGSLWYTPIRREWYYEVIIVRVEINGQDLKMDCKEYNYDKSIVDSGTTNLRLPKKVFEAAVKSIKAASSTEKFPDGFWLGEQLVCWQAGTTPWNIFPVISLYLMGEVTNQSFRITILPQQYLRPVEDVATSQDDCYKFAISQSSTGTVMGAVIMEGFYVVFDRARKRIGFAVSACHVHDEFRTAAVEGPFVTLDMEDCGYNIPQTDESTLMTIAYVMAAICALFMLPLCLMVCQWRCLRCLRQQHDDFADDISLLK
T1 sequence (O42275 24-633): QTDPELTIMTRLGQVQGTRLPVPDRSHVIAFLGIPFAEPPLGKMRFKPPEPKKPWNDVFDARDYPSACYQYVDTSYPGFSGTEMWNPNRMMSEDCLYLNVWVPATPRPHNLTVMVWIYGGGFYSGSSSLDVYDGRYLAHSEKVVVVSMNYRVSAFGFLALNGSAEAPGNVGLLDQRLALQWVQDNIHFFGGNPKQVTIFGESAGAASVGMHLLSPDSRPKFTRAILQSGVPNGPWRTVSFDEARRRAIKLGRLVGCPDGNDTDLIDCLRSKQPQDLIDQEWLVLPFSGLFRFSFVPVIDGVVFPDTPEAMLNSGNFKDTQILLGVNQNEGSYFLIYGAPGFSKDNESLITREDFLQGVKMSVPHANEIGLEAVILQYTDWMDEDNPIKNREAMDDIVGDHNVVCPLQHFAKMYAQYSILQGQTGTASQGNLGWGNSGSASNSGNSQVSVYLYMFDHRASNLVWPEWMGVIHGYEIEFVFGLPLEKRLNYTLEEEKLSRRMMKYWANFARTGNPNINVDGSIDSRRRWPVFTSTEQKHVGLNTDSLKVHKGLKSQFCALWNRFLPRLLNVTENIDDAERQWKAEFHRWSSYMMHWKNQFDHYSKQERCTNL

O=c1oc2cc(O)ccc2c2oc3cc(O)ccc3c12 [Coumestrol]
IC50 (Electric eel AChE [1]; [11]): 42.3 ± 1.29 µM | DPPH scavenging ([2]; ref 29 (Booth et al.)): inactivity | EC50 [3]: 54 ± 1 µM | Blot intensity of ONOO−-mediated nitrated BSA ([4]; 10 µM to 100 µM): dose dependent decrease | Inhibition mode, BChE (horse serum BChE [5]): Mixed-type | Inhibition mode, BChE (horse serum BChE [5]; listed as coumestrol): mixed type | Ki (horse serum BChE [5]; binding constant of inhibitor with enzyme-substrate complex, read-out: Ki value Kiu, BChE): 41.9 µM | Ki (horse serum BChE [5]; binding constant of inhibitor with free enzyme, read-out: Ki value Kic, BChE): 12.1 µM | Inhibition mode, AChE (Electric eel AChE [6]): Competitive | Inhibition mode, AChE (Electric eel AChE [6]; listed as coumestrol): competitive | Ki (Electric eel AChE [6]; secondary plot, binding constant of inhibitor with free enzyme, read-out: Ki value Kic, AChE): 48.9 µM | IC50 (BACE1 [7]): 51 ± 1.86 µM | IC50 (horse serum BChE [8]): 24.6 ± 2.28 µM | EC50 [9]: 1.17 ± 0.11 µM

CC(C)=CCCC(C)=CCc1cc2c(cc1O)oc(=O)c1c3ccc(O)cc3oc21 [Puerarol]
IC50 (Electric eel AChE [1]; [11]): 145 ± 2.46 µM | EC50 [3]: 82.5 ± 1.33 µM | Blot intensity of ONOO−-mediated nitrated BSA ([4]; 50–200 µM): dose dependent decrease | Inhibition mode, BACE1 (BACE1 [10]): Mixed-type ^e | Inhibition mode, BACE1 (BACE1 [10]; listed as puerarol): mixed inhibition; also recorded: mixed type | Ki (BACE1 [10]; binding constant of inhibitor with enzyme-substrate complex, read-out: Ki value Kiu, BACE1): 73.2 µM | Ki (BACE1 [10]; binding constant of inhibitor with free enzyme, read-out: Ki value Kic, BACE1): 33.8 µM | IC50 (BACE1 [7]): 28.2 ± 2.48 µM | IC50 (horse serum BChE [8]): > 200 µM | EC50 [9]: 6.99 ± 0.3 µM

COc1cc(O)c2c(c1)oc(=O)c1c3cc(O)c(O)cc3oc21 [wedelolactone, reference compound]
IC50 ([2]; read-out: DPPH scavenging activity IC50): 7 µM

COc1ccc2cc3[n+](cc2c1OC)CCc1cc2c(cc1-3)OCO2 [Berberine, berberine chloride, reference compound]
IC50 (Electric eel AChE [1]): 2.22 ± 0.02 µM

O=C1O[C@H]([C@@H](O)CO)C(O)=C1O [L-Ascorbic acid, reference compound]
EC50 [3]: 17.4 ± 0.32 µM
